Results published in patent publication US10947271B2, “Antibacterial agents” (THE UNIVERSITY OF QUEENSLAND, priority 2014, dated 2021).

Assays:
Assay type in all cases: cell-based
Settings in all cases: 24 h incubation, visual reading
[1] = tested on: Enterococcus faecium MDR Van A ATCC 51559; assay: MIC assay, E. faecium MDR Van A ATCC 51559
Outline: (§1)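 Mid-log cultures in MHB were added at 5×10e5 CFU/mL to compounds diluted twofold from 8 to 0.003 μg/ml. Visual inspection after 24 h incubation at 37° C. gave the MIC, the lowest concentration without visible growth.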

[2] = tested on: Staphylococcus aureus MRSA ATCC 43300; assay: MIC assay, S. aureus MRSA ATCC 43300
Outline: as §1

[3] = tested on: Streptococcus pneumoniae MDR ATCC 700677; assay: MIC assay, S. pneumoniae MDR ATCC 700677
Outline: as §1

Row | Minimum Inhibitory Concentration (MIC) E. faecium ATCC51559 [1] | Minimum Inhibitory Concentration (MIC) Staph. aureus ATCC43300 [2] | Minimum Inhibitory Concentration (MIC) S. pneumoniae ATCC 700677 [3] | SMILES
1 | xxx (xxx = 0.1-<1) | xxxxx (xxxxx = <0.01) | xxxxx (xxxxx = <0.01) | CCCCCCCCCCCCCC(=O)N[C@@H](CCCCN)C(=O)N[C@@H](CCCCN)C(=O)N[C@@H](CCCCNC(=O)[C@H]1NC(=O)[C@H]2NC(=O)[C@H](NC(=O)[C@@H]3NC(=O)[C@H](CC(N)=O)NC(=O)[C@H](NC(=O)[C@@H](CC(C)C)NC)[C@H](O)c4ccc(c(Cl)c4)Oc4cc3cc(c4O[C@@H]3O[C@H](CO)[C@@H](O)[C@H](O)[C@H]3O[C@H]3C[C@](C)(N)[C@H](O)[C@H](C)O3)Oc3ccc(cc3Cl)[C@H]2O)c2ccc(O)c(c2)-c2c(O)cc(O)cc21)C(N)=O [MCC_000974]
2 | x (x = >4) | xx (xx = 1-4) | xx (xx = 1-4) | CN[C@H](CC(C)C)C(=O)N[C@H]1C(=O)N[C@@H](CC(N)=O)C(=O)N[C@H]2C(=O)N[C@H]3C(=O)N[C@H](C(=O)N[C@H](C(=O)NCCCC[C@H](NC(=O)[C@H](CCCCN)NC(=O)[C@H](CCCCN)NC(=O)CC4CCCCC4)C(=O)O)c4cc(O)cc(O)c4-c4cc3ccc4O)[C@H](O)c3ccc(c(Cl)c3)Oc3cc2cc(c3O[C@@H]2O[C@H](CO)[C@@H](O)[C@H](O)[C@H]2O[C@H]2C[C@](C)(N)[C@H](O)[C@H](C)O2)Oc2ccc(cc2Cl)[C@H]1O [MCC_005502]
3 | xx (xx = 1-4) | xxxx (xxxx = 0.01-<0.1) | xxxx (xxxx = 0.01-<0.1) | CCCCCCCCCCCC(=O)N[C@@H](CCCCN)C(=O)N[C@@H](CCCCNC(=O)[C@H]1NC(=O)[C@H]2NC(=O)[C@H](NC(=O)[C@@H]3NC(=O)[C@H](CC(N)=O)NC(=O)[C@H](NC(=O)[C@@H](CC(C)C)NC)[C@H](O)c4ccc(c(Cl)c4)Oc4cc3cc(c4O[C@@H]3O[C@H](CO)[C@@H](O)[C@H](O)[C@H]3O[C@H]3C[C@](C)(N)[C@H](O)[C@H](C)O3)Oc3ccc(cc3Cl)[C@H]2O)c2ccc(O)c(c2)-c2c(O)cc(O)cc21)C(=O)O [MCC_005224]
4 | x (x = >4) | xx (xx = 1-4) | x (x = >4) | CN[C@H](CC(C)C)C(=O)N[C@H]1C(=O)N[C@@H](CC(N)=O)C(=O)N[C@H]2C(=O)N[C@H]3C(=O)N[C@H](C(=O)N[C@H](C(=O)NCCCC[C@H](NC(=O)[C@H](CCCCN(C)C)NC(=O)c4ccc(Cl)cc4)C(=O)O)c4cc(O)cc(O)c4-c4cc3ccc4O)[C@H](O)c3ccc(c(Cl)c3)Oc3cc2cc(c3O[C@@H]2O[C@H](CO)[C@@H](O)[C@H](O)[C@H]2O[C@H]2C[C@](C)(N)[C@H](O)[C@H](C)O2)Oc2ccc(cc2Cl)[C@H]1O [MCC_007219]
5 | x (x = >4) | xx (xx = 1-4) | xx (xx = 1-4) | CN[C@H](CC(C)C)C(=O)N[C@H]1C(=O)N[C@@H](CC(N)=O)C(=O)N[C@H]2C(=O)N[C@H]3C(=O)N[C@H](C(=O)N[C@H](C(=O)NCCCC[C@H](NC(=O)[C@H](CCCCN)NC(=O)[C@H](CCCCN)NC(=O)CCCOc4ccccc4)C(=O)O)c4cc(O)cc(O)c4-c4cc3ccc4O)[C@H](O)c3ccc(c(Cl)c3)Oc3cc2cc(c3O[C@@H]2O[C@H](CO)[C@@H](O)[C@H](O)[C@H]2O[C@H]2C[C@](C)(N)[C@H](O)[C@H](C)O2)Oc2ccc(cc2Cl)[C@H]1O [MCC_005501]

The next lines start with the molecule.

Row | SMILES | Minimum Inhibitory Concentration (MIC) E. faecium ATCC51559 [1] | Minimum Inhibitory Concentration (MIC) Staph. aureus ATCC43300 [2] | Minimum Inhibitory Concentration (MIC) S. pneumoniae ATCC 700677 [3]
6 | CNC(=O)C(CCCCNC(=O)C1NC(=O)C2NC(=O)C(NC(=O)C3NC(=O)C(CC(N)=O)NC(=O)C(NC(=O)C(CC(C)C)NC)C(O)c4ccc(c(Cl)c4)Oc4cc3cc(c4OC3OC(CO)C(O)C(O)C3OC3CC(C)(N)C(O)C(C)O3)Oc3ccc(cc3Cl)C2O)c2ccc(O)c(c2)-c2c(O)cc(O)cc21)NC(=O)C(CCCCN)NC(=O)C(CCCCN)NC(=O)CCCCCCCCCCCc1ccccc1 (stereo not drawn) [MCC_000511] | xxx (xxx = 0.1-<1) | xxxxx (xxxxx = <0.01) | xxxxx (xxxxx = <0.01)
7 | CCCCC=CCCCCCCCC(=O)NC(CCCCN)C(=O)NC(CCCCN)C(=O)NC(CCCCNC(=O)C1NC(=O)C2NC(=O)C(NC(=O)C3NC(=O)C(CC(N)=O)NC(=O)C(NC(=O)C(CC(C)C)NC)C(O)c4ccc(c(Cl)c4)Oc4cc3cc(c4OC3OC(CO)C(O)C(O)C3OC3CC(C)(N)C(O)C(C)O3)Oc3ccc(cc3Cl)C2O)c2ccc(O)c(c2)-c2c(O)cc(O)cc21)C(=O)NC (stereo not drawn) [MCC_000498] | x (x = >4) | xx (xx = 1-4) | xx (xx = 1-4)
8 | CCCCCCCCCCC(=O)N[C@@H](CCCCN)C(=O)N[C@@H](CCCCN)C(=O)N[C@@H](CCCCN)C(=O)N[C@@H](CCCCNC(=O)[C@H]1NC(=O)[C@H]2NC(=O)[C@H](NC(=O)[C@@H]3NC(=O)[C@H](CC(N)=O)NC(=O)[C@H](NC(=O)[C@@H](CC(C)C)NC)[C@H](O)c4ccc(c(Cl)c4)Oc4cc3cc(c4O[C@@H]3O[C@H](CO)[C@@H](O)[C@H](O)[C@H]3O[C@H]3C[C@](C)(N)[C@H](O)[C@H](C)O3)Oc3ccc(cc3Cl)[C@H]2O)c2ccc(O)c(c2)-c2c(O)cc(O)cc21)C(=O)NC [MCC_000309] | xxx (xxx = 0.1-<1) | xxxxx (xxxxx = <0.01) | xxxxx (xxxxx = <0.01)
9 | CNC(=O)C(CCCCNC(=O)C1NC(=O)C2NC(=O)C(NC(=O)C3NC(=O)C(CC(N)=O)NC(=O)C(NC(=O)C(CC(C)C)NC)C(O)c4ccc(c(Cl)c4)Oc4cc3cc(c4OC3OC(CO)C(O)C(O)C3OC3CC(C)(N)C(O)C(C)O3)Oc3ccc(cc3Cl)C2O)c2ccc(O)c(c2)-c2c(O)cc(O)cc21)NC(=O)C(CCCCN)NC(=O)C(CCCCN)NC(=O)CCCCCc1ccccc1 (stereo not drawn) [MCC_000507] | x (x = >4) | xxx (xxx = 0.1-<1) | xxx (xxx = 0.1-<1)
10 | CCCCCCCC(=O)NC(CCCCN)C(=O)NC(CCCCN)C(=O)NC(CCCCNC(=O)C1NC(=O)C2NC(=O)C(NC(=O)C3NC(=O)C(CC(N)=O)NC(=O)C(NC(=O)C(CC(C)C)NC)C(O)c4ccc(c(Cl)c4)Oc4cc3cc(c4OC3OC(CO)C(O)C(O)C3OC3CC(C)(N)C(O)C(C)O3)Oc3ccc(cc3Cl)C2O)c2ccc(O)c(c2)-c2c(O)cc(O)cc21)C(=O)NC (stereo not drawn) [MCC_000489] | x (x = >4) | xx (xx = 1-4) | xxx (xxx = 0.1-<1)
11 | CNC(=O)[C@H](CCCCNC(=O)[C@H]1NC(=O)[C@H]2NC(=O)[C@H](NC(=O)[C@@H]3NC(=O)[C@H](CC(N)=O)NC(=O)[C@H](NC(=O)[C@@H](CC(C)C)NC)[C@H](O)c4ccc(c(Cl)c4)Oc4cc3cc(c4O[C@@H]3O[C@H](CO)[C@@H](O)[C@H](O)[C@H]3O[C@H]3C[C@](C)(N)[C@H](O)[C@H](C)O3)Oc3ccc(cc3Cl)[C@H]2O)c2ccc(O)c(c2)-c2c(O)cc(O)cc21)NC(=O)[C@H](CCCCN)NC(=O)[C@H](CCCCN)NC(=O)[C@H](CCCCNC(=O)Cc1ccc(-c2ccccc2)cc1)NC(=O)Cc1ccc(-c2ccccc2)cc1 [MCC_000652] | xxx (xxx = 0.1-<1) | xxxxx (xxxxx = <0.01) | xxxxx (xxxxx = <0.01)
12 | CNC(=O)C(CCCCNC(=O)C1NC(=O)C2NC(=O)C(NC(=O)C3NC(=O)C(CC(N)=O)NC(=O)C(NC(=O)C(CC(C)C)NC)C(O)c4ccc(c(Cl)c4)Oc4cc3cc(c4OC3OC(CO)C(O)C(O)C3OC3CC(C)(N)C(O)C(C)O3)Oc3ccc(cc3Cl)C2O)c2ccc(O)c(c2)-c2c(O)cc(O)cc21)NC(=O)C(CCCCN)NC(=O)C(CCCCN)NC(=O)CCCCCCCCc1ccccc1 (stereo not drawn) [MCC_000509] | xx (xx = 1-4) | xxxx (xxxx = 0.01-<0.1) | xxxxx (xxxxx = <0.01)
13 | CNC(=O)C(CCCCNC(=O)C1NC(=O)C2NC(=O)C(NC(=O)C3NC(=O)C(CC(N)=O)NC(=O)C(NC(=O)C(CC(C)C)NC)C(O)c4ccc(c(Cl)c4)Oc4cc3cc(c4OC3OC(CO)C(O)C(O)C3OC3CC(C)(N)C(O)C(C)O3)Oc3ccc(cc3Cl)C2O)c2ccc(O)c(c2)-c2c(O)cc(O)cc21)NC(=O)C(CCCCN)NC(=O)C(CCCCNC(=O)CCCOc1ccccc1)NC(=O)CCCOc1ccccc1 (stereo not drawn) [MCC_000506] | x (x = >4) | xxx (xxx = 0.1-<1) | xxx (xxx = 0.1-<1)
14 | CNC(=O)C(CCCCNC(=O)C1NC(=O)C2NC(=O)C(NC(=O)C3NC(=O)C(CC(N)=O)NC(=O)C(NC(=O)C(CC(C)C)NC)C(O)c4ccc(c(Cl)c4)Oc4cc3cc(c4OC3OC(CO)C(O)C(O)C3OC3CC(C)(N)C(O)C(C)O3)Oc3ccc(cc3Cl)C2O)c2ccc(O)c(c2)-c2c(O)cc(O)cc21)NC(=O)C(CCCCN)NC(=O)C(CCCCNC(=O)CCCCCc1ccccc1)NC(=O)CCCCCc1ccccc1 (stereo not drawn) [MCC_000508] | xx (xx = 1-4) | xxxxx (xxxxx = <0.01) | xxxxx (xxxxx = <0.01)
